Test results from EP0508004A1, “Phenylsulfonylalkanoic acid compounds” (Kissei Pharmaceutical Co., Ltd., priority 1991, dated 1992).

What was measured:
Gallbladder strips = experiment: CCK-antagonism in isolated gallbladder (contraction of strips induced by CCK-8); type: cell-based, Hartley guinea-pig; conditions: Cavia porcellus; antagonism of gallbladder contraction induced by 10⁻⁸ M CCK-8, guinea-pig strips, Krebs solution, 37°C; read-out: IC₅₀
Procedure: Gallbladder strips isolated from male Hartley guinea-pig were prepared and suspended in Magnus bath filled with Krebs solution (1 g of initial tension). The solution kept at 37°C was aerated with a mixture of 95% O₂ and 5% CO₂. The isometric contraction of strips was recorded through a force-displacement transducer. Antagonism by test drugs against gallbladder contraction induced by 10⁻⁸ M CCK-8 was examined and IC₅₀ value was calculated.

amylase secretion = experiment: Effect on amylase secretion in rats (stimulated by CCK-8); type: in vivo; conditions: Rattus norvegicus, sc; intraduodenal administration 30 minutes before CCK-8 (10 µg/kg, subcutaneous); anesthetized male Wistar rats; amylase in biliopancreatic juice; read-out: ED₅₀
Procedure: Male Wistar rats were anesthetized with urethane (1.5 g/kg, S.C.), and tracheal cannula was inserted. Biliopancreatic juice was collected from the cannula which had been inserted into the common bile duct. Thirty minutes after intraduodenal administration of test drug, anylase secretion was stimulated by subcutaneous injection of CCK-8 (10 µg/kg). Amylase concentration in the sample collected every 30 minutes during experiment was assayed using Amylase B Test (Wako), and ED₅₀ value was calculated.

CCCCCN(CCCCC)C(=O)C(CC(=O)O)CS(=O)(=O)c1ccc(Cl)c(Cl)c1 (racemic) [Compound 29]
IC50 (Gallbladder strips): 37 µM | ED50 (amylase secretion): 9.9 mg/kg

CCCCCCN(CCCCCC)C(=O)C(CCC(=O)O)CS(=O)(=O)c1ccc(Cl)c(Cl)c1 (racemic) [Compound 33]
ED50 (amylase secretion): 7.1 mg/kg
